The record followed here is US6949536B2, “Sulfonylbenzene compounds as anti-inflammatory/analgesic agents” (Pfizer, Inc., priority 1998, dated 2005).

Each structure is given as a SMILES string. Structures can show the parent of a compound that is named as a salt.

As for `CS(=O)(=O)c1ccc(C2=C(c3ccc(-c4cscn4)cc3)C(=O)OC2)cc1` [Example 182, 4-[4-(Methylsulfonyl)phenyl]-3-[4-(1,3-thiazol-4-yl)phenyl]-2(5H)-furanone], the melting point was 236.8 °C.
Turning to `Cc1ccc(-c2ccc(S(C)(=O)=O)cc2)n1-c1ccc(-c2ccoc2)cc1` [Example 38, 5-[4-(Methylsulfonyl)phenyl]-1-[4-(3-furyl)phenyl]-2-methyl-1H-pyrrole], the melting point lay within 200 to 202 °C.
With `CS(=O)(=O)c1ccc(-n2nc(C(F)(F)F)cc2-c2ccc(-c3ccsc3)cc2)cc1F` [Example 87, 1-[3-Fluoro-4-(methylsulfonyl)phenyl]-5-[4-(3-thienyl)phenyl]-3-(trifluoromethyl)-1H-pyrazole] the figure was 72 to 74 °C; with `CS(=O)(=O)c1ccc(-n2nc(C(F)(F)F)cc2-c2ccc(-c3cscn3)c(Cl)c2)cc1F` [Example 109, 4-{2-Chloro-4-[1-[3-fluoro-4-(methylsulfonyl)phenyl]-3-(trifluoromethyl)-1H-pyrazol-5-yl]phenyl}-1,3-thiazole], 108 to 110 °C; with `Cc1cc(-c2ccc(-c3ccco3)cc2)n(-c2ccc(S(C)(=O)=O)cc2)c1` [Example 59, 2-[4-(2-Furyl)phenyl]-4-methyl-1-[4-(methylsulfonyl)phenyl]-1H-pyrrole], 193 to 194 °C.
The value for `Cc1ccc(-c2ccc(S(C)(=O)=O)cc2)n1-c1ccc(-c2nccs2)cc1` [Example 49, 2-Methyl-5-[4-(methylsulfonyl)phenyl]-1-[4-(2-thiazolyl)phenyl]-1H-pyrrole] was 190 to 191 °C; that for `NS(=O)(=O)c1ccc(-n2nc(C(F)(F)F)cc2-c2ccc(-c3cscn3)c(O)c2)cc1F` (as salt: hydrochloride) [Example 174, 2-Fluoro-4-[5-[3-hydroxy-4-(1,3-thiazol-4-yl)phenyl]-3-(trifluoromethyl)-1H-pyrazol-1-yl]benzenesulfonamide] was 224 to 226 °C.
As for `Cc1nc(-c2ccc(S(N)(=O)=O)c(F)c2)c(-c2ccc(-c3cscn3)cc2)o1` [Example 193, 2-fluoro-4-[2-methyl-5-[4-(1,3-thiazol-4-yl)phenyl]-1,3-oxazol-4-yl]benzenesulfonamide], the melting point lay in the range of 192 to 194 °C.
As for `Cc1cc(S(C)(=O)=O)ccc1-n1nc(C(F)(F)F)cc1-c1ccc(-c2ccco2)cc1` (as salt: hydrochloride) [Example 142, 5-[4-(2-Furyl)phenyl]-1-[4-(methylsulfonyl)-2-methylphenyl]-3-trifluoromethyl-1H-pyrazole], the melting point is 205 °C.
The compound `Cc1ccc(-c2ccc(S(C)(=O)=O)cc2)n1-c1ccc(-c2ccc[nH]2)cc1` [Example 47, 2-Methyl-5-[4-(methylsulfonyl)phenyl]-1-[4-(2-pyrrolyl)phenyl]-1H-pyrrole] came in with a melting point of 225 to 227 °C.
The value for `Cc1cc(C2=C(c3ccc(S(C)(=O)=O)cc3)C(C)(C)OC2=O)ccc1-c1cscn1` [Example 184, 5,5-Dimethyl-3-[3-methyl-4-(1,3-thiazol-4-yl)phenyl]-4-[4-(methylsulfonyl)phenyl]-2(5H)-furanone] was 180.3 °C; that for `Cc1cc(S(N)(=O)=O)ccc1-n1nc(C(F)(F)F)cc1-c1ccc(-c2ccco2)cc1` (as salt: hydrochloride) [Example 145, 4-[5-[4-(2-Furyl)phenyl]-3-(trifluoromethyl)-1H-pyrazol-1-yl]-3-methylbenzenesulfonamide] was 87 to 89 °C; that for `CS(=O)(=O)c1ccc(-n2cc(C(F)(F)F)nc2-c2ccc(-c3cscn3)cc2)cc1F` [Example 153, 1-[3-Fluoro-4-(methylsulfonyl)phenyl]-2-[4-(4-thiazolyl)phenyl]-4-trifluoromethyl-1H-imidazole] was 112.5 to 115 °C.
The value for `CS(=O)(=O)c1ccc(-n2cc(C(F)(F)F)nc2-c2ccc(-c3ccco3)cc2)cc1` [Example 53, 2-[4-(2-Furyl)phenyl]-1-[4-(methylsulfonyl)phenyl]-4-(trifluoromethyl)-1H-imidazole] was 82 to 84 °C; that for `COc1cc(-c2cc(C(F)(F)F)nn2-c2ccc(S(C)(=O)=O)cc2)ccc1-c1cocn1` (as salt: hydrochloride) [Example 111, 4-{2-Methoxy-4-[1-[4-(methylsulfonyl)phenyl]-3-(trifluoromethyl)-1H-pyrazol-5-yl]phenyl}-1,3-oxazole] was 171 to 173 °C.
The value for `Cc1ccc(-c2ccc(S(C)(=O)=O)cc2)n1-c1ccc(-c2cccs2)cc1` [Example 45, 2-Methyl-5-[4-(methylsulfonyl)phenyl]-1-[4-(2-thienyl]phenyl]-1H-pyrrole] was 185 to 186 °C; that for `Cc1scnc1-c1ccc(-c2cc(C(F)(F)F)nn2-c2ccc(S(C)(=O)=O)c(F)c2)cc1` [Example 104, 4-{4-[1-[3-Fluoro-4-(methylsulfonyl)phenyl]-3-(trifluoromethyl)-1H-pyrazol-5-yl]phenyl}-5-methyl-1,3-thiazole] was 170 to 172 °C.
Compound `NS(=O)(=O)c1ccc(-n2nc(C(F)(F)F)cc2-c2ccc(-c3cscn3)cc2)cc1` (as salt: hydrochloride) [Example 100, 4-[5-[4-(1,3-Thiazol-4-yl)phenyl]-3-(trifluoromethyl)-1H-pyrazol-1-yl]benzenesulfonamide] registered a melting point of 188 to 190 °C.
`Cc1cc(-c2ccnn2-c2ccc(S(N)(=O)=O)c(F)c2C(F)F)ccc1-c1cscn1` (as salt: hydrochloride) [Example 195, 3-(Difluoromethyl)-2-fluoro-4-[5-[3-methyl-4-(1,3-thiazol-4-yl)phenyl]-1H-pyrazol-1-yl]benzenesulfonamide] had a melting point of 204.3 °C.
Compound `CS(=O)(=O)c1ccc(-n2nc(C(=O)N3CCOCC3)cc2-c2ccc(-c3ccco3)cc2)cc1F` [Example 130, 1-[3-Fluoro-4-(methylsulfonyl)phenyl]-5-[4-(2-furyl)phenyl]-3-(4-morpholinecarbonyl)-1H-pyrazole] displayed a melting point of 221 to 222 °C.
With `CS(=O)(=O)c1ccc(-n2nc(C(F)(F)F)cc2-c2ccc(-c3ncco3)cc2)cc1F` [Example 96, 2-{4-[1-[3-Fluoro-4-(methylsulfonyl)phenyl]-3-(trifluoromethyl)-1H-pyrazol-5-yl]phenyl}-1,3-oxazole] the figure was 140 to 142 °C; with `CCOC(=O)c1cc(-c2ccc(-c3ccco3)cc2)n(-c2ccc(S(C)(=O)=O)cc2)n1` [Example 65, Ethyl 5-[4-(2-furyl)phenyl]-1-[4-(methylsulfonyl)phenyl]-1H-pyrazole-3-carboxylate], 180.9 to 181.1 °C.
The value for `Cc1cc(-c2ccco2)ccc1-c1cc(C(F)(F)F)nn1-c1ccc(S(C)(=O)=O)cc1` (as salt: hydrochloride) [Example 78, 1-[4-(Methylsulfonyl)phenyl]-5-[4-(2-furyl)-2-methylphenyl]-3-(trifluoromethyl)-1H-pyrazole] was 175 to 177 °C; that for `Cc1cc(-c2ccc(S(C)(=O)=O)cc2)n(-c2ccc(-c3ccoc3)cc2)c1` [Example 55, 1-[4-(3-Furyl)phenyl]-4-methyl-2-[4-(methylsulfonyl)phenyl]-1H-pyrrole] was 154 to 156 °C; that for `CS(=O)(=O)c1ccc(C2=C(c3ccc(-c4ccoc4)cc3)C(=O)OC2)cc1` [Example 34, 3-[4-(3-Furyl)phenyl]-4-[4-(methylsulfonyl)phenyl]-2-(5H)-furanone] was 188 to 190 °C.
`COc1cc(-c2cc(C(F)(F)F)nn2-c2ccc(S(C)(=O)=O)cc2)ccc1-c1ccco1` (as salt: hydrochloride) [Example 81, 1-[4-(Methylsulfonyl)phenyl]-5-[4-(2-furyl)-3-methoxyphenyl]-3-(trifluoromethyl)-1H-pyrazole] came in with a melting point of 138 to 140 °C.
With `COc1cc(-c2cc(C(F)(F)F)nn2-c2ccc(S(N)(=O)=O)c(F)c2)ccc1-c1cscn1` (as salt: hydrochloride) [Example 175, 2-Fluoro-4-[5-[3-methoxy-4-(1,3-thiazol-4-yl)phenyl]-3-(trifluoromethyl)-1H-pyrazol-1-yl]benzenesulfonamide], the melting point was in the range of 97 to 99 °C.
With `NS(=O)(=O)c1ccc(-n2nc(C(F)(F)F)cc2-c2ccc(-c3ccco3)c(Cl)c2)cc1F` [Example 138, 4-[5-[3-Chloro-4-(2-furyl)phenyl]-3-(trifluoromethyl)-1H-pyrazol-1-yl]-2-fluorobenzenesulfonamide] the figure was 171.8 °C.
For `CS(=O)(=O)c1ccc(-n2nc(C(F)(F)F)cc2-c2ccc(-c3ncco3)cc2)cc1` (as salt: hydrochloride) [Example 97, 2-{4-[1-[4-(Methylsulfonyl)phenyl]-3-(trifluoromethyl)-1H-pyrazol-5-yl]phenyl}-1,3-oxazole], the melting point is 190 to 192 °C.
`CS(=O)(=O)c1ccc(-n2nc(C(F)(F)F)cc2-c2ccc(-c3cnco3)cc2)cc1` (as salt: hydrochloride) [Example 76, 1-[4-(Methylsulfonyl)phenyl]-5-[4-(5-oxazolyl)phenyl]-3-(trifluoromethyl)-1H-pyrazole] had a melting point of 178 to 180 °C.
`CS(=O)(=O)c1ccc(-n2nc(C(F)(F)F)cc2-c2ccc(-c3cscn3)c(F)c2)cc1F` [Example 105, 4-{4-[1-[3-Fluoro-4-(methylsulfonyl)phenyl]-3-(trifluoromethyl)-1H-pyrazol-5-yl]-2-fluorophenyl}-1,3-thiazole] displayed a melting point of 156 to 158 °C.
Consider `CS(=O)(=O)c1ccc(-n2nc(C(F)(F)F)cc2-c2ccc(-c3ccco3)cc2)cc1C(F)(F)F` (as salt: hydrochloride) [Example 135, 5-[4-(2-Furyl)phenyl]-1-[4-(methylsulfonyl)-3-(trifluoromethyl)phenyl]-3-trifluoromethyl-1H-pyrazole], for which the melting point was 159 to 160 °C.
The value for `CN(C)C(=O)c1cc(-c2ccc(-c3ccco3)cc2)n(-c2ccc(S(C)(=O)=O)c(F)c2)n1` (as salt: hydrochloride) [Example 133, N,N-Dimethyl-1-[3-fluoro-4-(methylsulfonyl)phenyl]-5-[4-(2-furyl)phenyl]-1H-pyrazole-3-carboxamide] was 167 to 168 °C.

In general, melting point refers to the temperature, or range, at which the solid turns liquid.
